From PMC8279484 (Journal of Medicinal Chemistry, 2021)

What was measured:
IFNγ = experiment: LPS-induced IFNγ release from THP-1 Lucia monocytes (multiplex electrochemiluminescence); assay type: cell-based, human; conditions: for IC50: Homo sapiens, THP-1; for IC50 / Imax, IFNγ release: LPS 50 ng/mL, 24 h; for Imax, IFNγ release: concentration–response
Experimental: LXA41 and all of the tested sLXms were dissolved in ethanol and further diluted in a culture medium (final ethanol concentration 0.1%; equivalent concentrations were used as the vehicle control). Prior to in vitro experiments, THP-1-Lucia NF-κB cells were harvested and plated at 1 × 10^5 cells/well on 96-well plates and left to settle in the incubator at 37 °C, 95% humidity, and 5% CO2, in 0.1% FBS-containing media, pretreated for 30 min with increasing doses of LXA41, sLXms (from 10^–12 to 10^–6 M), or appropriate controls, followed by stimulation with 50 ng/mL LPS for 24 h. Untreated (Unt) or vehicle-treated (Veh) cells were used as negative controls; 1 pM (1R)-5, the (1R)-epimer of the benzo-mimetic, was used as a positive control for any aromatic mimetic; and, finally, we compared the observed effects to the conventional glucocorticoid dexamethasone (Dex) treatment, at 1 μM.
After 24 h of exposure to LXA41, sLXms, or vehicle, followed by LPS stimulation (50 ng/mL), as described above, THP-1-Lucia NF-κB-cell supernatants were collected and cleared by centrifugation. Concentrations of IFN-γ, IL-1β, IL-6, IL-8, IL-10, IL-12p70, and TNF-α in culture supernatants were assessed by electro-chemi-luminescent detection, using a commercially available human 96-well plate “multiplex” (several analytes in the same well) kit for tissue culture samples, according to the manufacturers’ guidelines.
(§1) The “coding” of the heat-map indicates the arbitrary criteria to assign points to each single PD component (efficacy = Imax or Emax; potency = IC50 or EC50; slope = HS) to generate a final (aggregate) relative PD score. If a single PD component was greater than the reference level (x > 1), then the single-component relative score was arbitrarily set to +1 (light green) or +2 (dark green). If a single PD component was equal to the reference level (x = 1), then the single-component relative score was arbitrarily set to 0 (gray). If a single PD component was smaller than the reference level (x < 1), then the single-component relative score was arbitrarily set to −1 (light red) or −2 (dark red). If the curve of a single PD component was best fitting to a flat line (x = 0), then the single-component relative score was arbitrarily set to −4 (purple) (Table S1).

ALX/FPR2 receptor = molecular target: T1, ALX/FPR2 receptor (Homo sapiens, UniProt P25090); experiment: Intracellular calcium flux in FPR2+/Gαq+ stably transfected HEK-293; assay type: cell-based; conditions: for Emax: HEK293, % delta calcium signal relative to peak of full agonist (1), 10 pM–100 nM, read-out: Efficacy Emax (%)
T1 construct: host or cells: HEK-293, stably double-transfected FPR2+/Gαq+
T1 sequence (P25090 1-351): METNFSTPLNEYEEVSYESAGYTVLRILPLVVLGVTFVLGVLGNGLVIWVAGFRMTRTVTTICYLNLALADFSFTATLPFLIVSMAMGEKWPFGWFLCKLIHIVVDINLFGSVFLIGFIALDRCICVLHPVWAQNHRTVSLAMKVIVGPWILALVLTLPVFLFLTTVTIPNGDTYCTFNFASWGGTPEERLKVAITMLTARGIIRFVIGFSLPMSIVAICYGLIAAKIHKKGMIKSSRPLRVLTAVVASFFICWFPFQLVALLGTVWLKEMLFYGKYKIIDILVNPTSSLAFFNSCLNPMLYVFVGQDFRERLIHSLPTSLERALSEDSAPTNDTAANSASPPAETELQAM
Experimental: HEK-293-transfected and wt cell lines were cultured in Dulbecco’s modified Eagle’s medium (DMEM Glutamax, 4 mM L-glu and 4.50 g/L glucose—Gibco, Ireland) supplemented with heat-inactivated (30 min at 56C) 10% (v/v) FBS (Invitrogen, U.K.), 50 U penicillin, and 50 μg of streptomycin (Invitrogen, U.K.). As stably double-transfected FPR2^+/Gαq^+ HEK-293 cells were resistant to Geneticin and Hygromycin, these were used as selective antibiotics (500 and 100 μg/mL, respectively) to maintain the stable double transfection with the ALX/FPR2 receptor and the Gαq subunit coupled to it. Immediately prior to calcium measurement, fluorescently labeled cells were treated with 10^–11/–9/–7M LXA41 or sLXms using an injection system coupled to the fluorescence reader.
To explore the mechanism of action through which the sLXm lead compound exerts the effects seen here, its interaction with the ALX/FPR2 receptor was investigated and agonist-induced intracellular calcium transients were measured using an engineered cell line stably overexpressing the ALX/FPR2 receptor and the Gαq subunit coupled to it (Figure S6). Wild-type HEK cells were used as controls, to verify the specificity of the agonism toward ALX/FPR2, as previously reported.[36] Briefly, prior to cell plating, sterile 96-well plates (black-sided with optically clear glass flat bottoms) were PDL-coated overnight. Subsequently, 2 × 10^5 wild-type cells and overexpressed cells/well were cultured for 18 h in DMEM complete media (containing Ca^2+ and Mg^2+) to facilitate adherence prior to labeling with Fluo-4 dye. After 1 h of incubation at 37 °C with Fluo-4, cells were gently washed twice and placed in 100% Hanks’ balanced salt solution (HBSS; 37 °C) before reading the fluorescence (485/535 nm), using a spectrophotometer conjugated with an injection system (Clariostar BMG LABTECH plate reader), allowing addition to the cells of controls ([…], 2 nM Wp, a synthetic ALX/FPR2 agonist) or experimental treatments [10 pM, 1 nM, and 100 nM LXA41 or (R)-6].
During calcium flux measurement, the kinetic steps involved were the following: the baseline fluorescent signal was measured for 20 s, followed by 100 s immediately after agonist injection. Subsequently, 2% Triton-X-100 was added to lyse the cells (monitoring for 20 s the maximal release of calcium ions in the extracellular environment) and, finally, 25 mM tetraacetic acid (EGTA) was added to chelate calcium ions (monitoring for additional 20 s the minimal detection of calcium ions in the extracellular environment) (Figure S7).
as §1

THP-1 LUCIA monocytes = experiment: Intrinsic cytotoxicity: LDH release without LPS; assay type: cell-based, human; conditions: for Intrinsic Toxicity Level: LDH-associated level of cytotoxicity (high / moderate / low); for intrinsic LDH release versus vehicle / spontaneous cell release: absence of LPS, 24 h, controls Dex 1 μM, 2 1 pM, 5 1 pM; for Intrinsic Toxicity TC50 (pM): half-maximal intrinsic LDH-associated toxic activity, no LPS
Summary of the method: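 THP-1-Lucia NF-κB cells exposed 24 h to compounds, vehicle or controls, then LPS-stimulated for extrinsic, unstimulated for intrinsic. Supernatant LDH read at 490 nm minus 690 nm, relative to vehicle; maximum release from 2% Triton-X-100 lysis, spontaneous release from untreated cells; LPS response set to 100%.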

CCCCC[C@@H](O)c1nc2ccccc2nc1/C=C/[C@@H](O)[C@@H](O)CCCC(=O)OC [(R)-6, Methyl (5S,6R,E)-5,6-Dihydroxy-8-(3-((R)-1-hydroxyhexyl)quinoxalin-2-yl)oct-7-enoate]
IC50 (IFNγ): 1 pM | Imax, IFNγ release (IFNγ): 62 ± 1% | Slope HS (ALX/FPR2 receptor): 220 | type of agonism at ALX/FPR2 (ALX/FPR2 receptor): equipotent partial agonist | ALX/FPR2 activation lower than that induced by native LXA4 (ALX/FPR2 receptor; both at 10 pM): 40% | (Single component) Rel. Score: Rel. Eff. (ALX/FPR2 receptor; relative to LXA4 (1)): -2 | (Single component) Rel. Score: Rel. Sl. (ALX/FPR2 receptor; relative to LXA4 (1)): 1 (1 < x < 10) | Efficacy Rel. Eff. (ALX/FPR2 receptor; relative to LXA4 (1)): 0.61 | Potency Rel. Pot. (ALX/FPR2 receptor; relative to LXA4 (1)): 1 | Rel. Slope (ALX/FPR2 receptor; relative to LXA4 (1)): 1.46 | Intrinsic Toxicity Level (THP-1 LUCIA monocytes): Low and low cytotoxicity | intrinsic LDH release versus vehicle / spontaneous cell release (THP-1 LUCIA monocytes): lower than the vehicle | Intrinsic Toxicity TC50 (pM) (THP-1 LUCIA monocytes): 500 pM

CCCCC[C@@H](O)c1nc2ccccc2nc1/C=C/[C@H]1OC(C)(C)O[C@H]1CCCC(=O)OC [(R)-17, Methyl 4-((4S,5R)-5-((E)-2-(3-((R)-1-Hydroxyhexyl)quinoxalin-2-yl)vinyl)-2,2-dimethyl-1,3-dioxolan-4-yl)butanoate]
Intrinsic Toxicity TC50 (pM) (THP-1 LUCIA monocytes): 100 pM

CCCCCCC[C@H](O)c1nc2ccccc2nc1/C=C/[C@@H](O)[C@@H](O)CCCC(=O)OC [(S)-8, Methyl (5S,6R,E)-5,6-Dihydroxy-8-(3-((S)-1-hydroxyoctyl)quinoxalin-2-yl)oct-7-enoate]
PD score, IFNγ release (IFNγ; relative to LXA4 (1)): negative PD scores | Intrinsic Toxicity Level (THP-1 LUCIA monocytes): Low | intrinsic LDH release versus vehicle / spontaneous cell release (THP-1 LUCIA monocytes): lower than the vehicle | Intrinsic Toxicity TC50 (pM) (THP-1 LUCIA monocytes): 100 pM

CCCCC[C@H](O)/C=C/C=C\C=C\C=C\[C@@H](O)[C@@H](O)CCCC(=O)O [Compound 1, LXA4]
IC50 (IFNγ): 1 pM | Imax, IFNγ release (IFNγ): 72 ± 4% | Slope HS (ALX/FPR2 receptor): 150 | type of agonism at ALX/FPR2 (ALX/FPR2 receptor): full agonist | Emax (ALX/FPR2 receptor): 100% | Efficacy Rel. Eff. (ALX/FPR2 receptor; relative to LXA4 (1)): 1 | Potency Rel. Pot. (ALX/FPR2 receptor; relative to LXA4 (1)): 1 | Rel. Slope (ALX/FPR2 receptor; relative to LXA4 (1)): 1

CCCCC[C@@H](O)c1c(/C=C/[C@@H](O)[C@@H](O)CCCC(=O)OC)nc(C)n1C [Compound 5, imidazolo-LXA4]
Slope HS (ALX/FPR2 receptor): 258 | Emax (ALX/FPR2 receptor): 99 ± 17% | (Aggregate) Rel. PD Score (ALX/FPR2 receptor; relative to LXA4 (1)): 2 | (Single component) Rel. Score: Rel. Sl. (ALX/FPR2 receptor; relative to LXA4 (1)): 2 (x ≥ 10) | Efficacy Rel. Eff. (ALX/FPR2 receptor; relative to LXA4 (1)): 0.99 | Potency Rel. Pot. (ALX/FPR2 receptor; relative to LXA4 (1)): 1 | Rel. Slope (ALX/FPR2 receptor; relative to LXA4 (1)): 1.72 | intrinsic LDH release versus vehicle / spontaneous cell release (THP-1 LUCIA monocytes): did not display any significant cytotoxic effect
